In data set [1] the target is T1, EML4-ALK fusion protein v1 (Homo sapiens, UniProt Q9UM73, D1529E/I1461V/K1491R).
T1 construct: FLAG (N); made in house
The data set is described as follows: Inhibitory effect of compounds against the in vitro kinase activity of EML4-ALK fusion protein v1, single concentration (Test Example 12(3)). In kind it is biochemical. The note with it: final concentration 10 μM. An excerpt: (§1) N-terminally FLAG-tagged EML4-ALK fusion protein v1 was inserted into a vector pMX-iresCD8 capable of co-expression of insert cDNA and cell surface antigen CD8 (J. Biol. Chem., 2001, vol. 276, p. 39012-39020) to create a vector FLAG-EML4-ALKv1/pMX-iresCD8 expressing both FLAG-EML4-ALKv1 and CD8. FLAG-EML4-ALKv1/pMX-iresCD8 was used to create a recombinant retrovirus in the same manner as described above and infected into mouse lymphoid cell line BA/F3 cells. Using a magnetic bead reagent for cell separation and a purification column (anti-CD8 monoclonal antibody immobilized on magnetic beads and a MiniMACS purification column; both are products of Miltenyi Biotec Inc.), cell surface CD8-expressing cells were purified conveniently. […] After washing 3 times with PBS, the cells were lysed in a lysis solution (50 mM Tris.HCl (pH 7.4), 150 mM NaCl, 1% Triton X100, 5 mM EDTA, 5 mM EGTA, 1 mM NaVO4, 1 mM DTT and protease inhibitor cocktail complete). The EML4-ALK fusion protein v1 present in the supernatant obtained after centrifugation was purified using ANTI-FLAG M2 Affinity Gel (SIGMA-ALDRICH Inc.) according to the method described in the product information document.
(§2) The EML4-ALK fusion protein v1 purified as above was investigated for its phosphorylation activity toward a peptide substrate using a kinase activity detection kit (HTRF KinEASE-TK; Cisbio Inc.). Using TK substrate 1, which was included in the kit, as the substrate, and after adding no ATP or 100 μM ATP, the mixtures were reacted at room temperature for 1 hour, and the count of HTRF was detected as recommended by the Kits manufacturer.

Data set [2] concerns the target T1, EML4-ALK fusion protein v1. The data set is described as follows: Inhibitory activity against the kinase activity of EML4-ALK fusion protein v1 (Test Example 1). The note with it: ATP 100 μM, reaction 1 hour, HTRF KinEASE-TK. The class given is biochemical. The method, then: (§3) EML4-ALK fusion protein v1 (purified from BA/F3 cells expressing EML4-ALK fusion protein v1) was investigated for its phosphorylation activity toward a peptide substrate by using a kinase activity detection kit (HTRF KinEASE-TK; Cisbio Inc.). […] The ATP concentration used was 100 μM. Another reaction solution was prepared to contain the enzyme protein but no test compound (in which the solvent DMSO alone was added at 0.4% in place of the test compound), followed by reaction in the same manner with or without ATP addition. […] The concentration causing 50% inhibition (IC50) was calculated for each test compound by the logistic regression method.
as §1, §2
On the technique in general: TR-FRET usually uses a lanthanide donor and a delayed reading to cut background.

Data set [3] has as its system human non-small cell lung cancer cell line NCI-H2228 cells (EML4-ALK fusion protein-expressing cells). The data set can be described thus: Inhibitory effect against anchorage-independent cell growth of NCI-H2228 cells (Test Example 3). The class given is cell-based. The note with it: 120 h, spheroid plate, 5 days, CellTiter-Glo. An excerpt:
Measurement for anchorage-independent cell growth (colony method, etc) has been known to be a system for investigating the anticancer action (pharmacological effect) of test compounds (Clinical Oncology, second edition, Cancer and Chemotherapy Publishers Inc.). In place of the colony method, there is a following method using spheroid plates for measuring the growth of non-attached cells.
(§4) In a 96-well spheroid plate (Sumilon Celltight Spheroid 96U; Sumitomo Bakelite Co., Ltd., Japan), human non-small cell lung cancer cell line NCI-H2228 cells were seeded at 2000 cells per well in RPMI1640 medium (Invitrogen) containing 10% fetal bovine serum. NCI-H2228 cells are those expressing another EML4-ALK fusion protein, which is different from the EML4-ALK fusion protein v1 because it is encoded by an EML4-ALK fusion polynucleotide whose fusion point on EML4 cDNA is different from that of the EML4-ALK fusion polynucleotide v1, but whose ALK region is the same as that of the EML4-ALK fusion polynucleotide v1. The above NCI-H2228 cells seeded in the plate were cultured overnight under 5% CO2 at 37° C., followed by addition of a test compound (final concentration: 10 μM to 1 nM). As a negative control, DMSO used as a solvent was added at the same concentration as the test compound. Then, the cells were cultured under 5% CO2 at 37° C. for 5 days. A cell counting reagent (CellTiter-Glo™ Luminescent Cell Viability Assay; Promega) was added and agitated for 20 minutes, followed by measurement with a luminometer (ML3000 microtiter plate luminometer; Dynatech Laboratories).

Data set [4] deals with human non-small cell lung cancer cell line HCC827 cells (mutant EGFR protein-expressing cells). The data set is described as follows: Inhibitory effect against anchorage-independent cell growth of HCC827 cells (Test Example 4). The class given is cell-based. The note with it: 120 h, spheroid plate, 5 days, CellTiter-Glo. Here is the method: as §4
Evaluation of Inhibitory Effect Against Anchorage-Independent Cell Growth of Human Non-Small Cell Lung Cancer Cell Line HCC827 Cells (Mutant EGFR (with Partial Deletion of Exon 19 in EGFR) Protein-Expressing Cells, American Type Culture Collection)
Evaluation was performed in the same manner as shown in Test Example 3.

Data set [5] addresses T2, Mutant EGFR (L858R) protein (Homo sapiens, UniProt P00533, L858R).
T2 construct: purchased Cana Biosciences Inc., Japan (sic; Carna Biosciences)
The data set can be described thus: Inhibitory activity against the kinase activity of mutant EGFR (L858R) protein (Test Example 2). The class given is biochemical. The note with it: ATP 5 μM, reaction 1 hour, HTRF KinEASE-TK. The method, then:
The ATP concentration used was 5 μM. Another reaction solution was prepared to contain the enzyme protein but no test compound (in which the solvent DMSO alone was added at 0.4% in place of the test compound), followed by reaction in the same manner with or without ATP addition. […] The concentration causing 50% inhibition (IC50) was calculated for each test compound by the logistic regression method.

Data set [6] addresses T3, MUSK (Homo sapiens, UniProt O15146).
T3 sequence (O15146 24-869): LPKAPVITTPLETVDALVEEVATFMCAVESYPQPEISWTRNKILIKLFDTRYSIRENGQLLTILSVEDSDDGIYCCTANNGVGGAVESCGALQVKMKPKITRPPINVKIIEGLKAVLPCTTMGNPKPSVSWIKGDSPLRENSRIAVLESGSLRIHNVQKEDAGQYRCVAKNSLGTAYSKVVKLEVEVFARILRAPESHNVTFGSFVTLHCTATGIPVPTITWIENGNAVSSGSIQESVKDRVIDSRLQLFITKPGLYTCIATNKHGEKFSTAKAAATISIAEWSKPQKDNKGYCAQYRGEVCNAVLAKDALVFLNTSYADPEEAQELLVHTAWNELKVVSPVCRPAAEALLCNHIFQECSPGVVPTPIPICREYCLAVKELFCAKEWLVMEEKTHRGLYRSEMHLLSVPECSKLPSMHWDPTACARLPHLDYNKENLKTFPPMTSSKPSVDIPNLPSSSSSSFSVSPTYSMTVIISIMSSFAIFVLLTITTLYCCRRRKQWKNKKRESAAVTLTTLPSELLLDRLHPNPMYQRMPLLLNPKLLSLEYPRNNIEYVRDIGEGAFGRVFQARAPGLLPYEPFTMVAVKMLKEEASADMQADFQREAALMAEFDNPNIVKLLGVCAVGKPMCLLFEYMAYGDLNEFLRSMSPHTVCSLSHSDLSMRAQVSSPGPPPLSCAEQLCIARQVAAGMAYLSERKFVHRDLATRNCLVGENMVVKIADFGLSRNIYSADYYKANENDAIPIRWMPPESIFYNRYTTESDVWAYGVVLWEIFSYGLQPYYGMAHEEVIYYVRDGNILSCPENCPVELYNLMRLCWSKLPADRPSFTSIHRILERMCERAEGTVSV
The data set is described as follows: Inhibitory activity against the kinase activity of MUSK protein (Test Example 7). In kind it is biochemical. Further details: purchased Carna Biosciences Inc., Japan. The note with it: ATP 10 μM, reaction 1 hour, HTRF KinEASE-TK. The method, then: as §3, with “MUSK” for “EML4-ALK fusion”, “(Carna Biosciences Inc., Japan)” for “v1 (purified from BA/F3 cells expressing EML4-ALK fusion protein v1)”, “10” for “100”

SMILES strings stand for the structures.

What is called inhibition is the percentage by which the read-out fell short of the control. A low value points to little suppression. Usually IC50 stands for the concentration needed to halve the response being measured. For orientation: melting point means the temperature of the solid-liquid transition.

T1 sequence (Q9UM73 with tags, fused parts or gaps I1461V/K1491R/D1529E): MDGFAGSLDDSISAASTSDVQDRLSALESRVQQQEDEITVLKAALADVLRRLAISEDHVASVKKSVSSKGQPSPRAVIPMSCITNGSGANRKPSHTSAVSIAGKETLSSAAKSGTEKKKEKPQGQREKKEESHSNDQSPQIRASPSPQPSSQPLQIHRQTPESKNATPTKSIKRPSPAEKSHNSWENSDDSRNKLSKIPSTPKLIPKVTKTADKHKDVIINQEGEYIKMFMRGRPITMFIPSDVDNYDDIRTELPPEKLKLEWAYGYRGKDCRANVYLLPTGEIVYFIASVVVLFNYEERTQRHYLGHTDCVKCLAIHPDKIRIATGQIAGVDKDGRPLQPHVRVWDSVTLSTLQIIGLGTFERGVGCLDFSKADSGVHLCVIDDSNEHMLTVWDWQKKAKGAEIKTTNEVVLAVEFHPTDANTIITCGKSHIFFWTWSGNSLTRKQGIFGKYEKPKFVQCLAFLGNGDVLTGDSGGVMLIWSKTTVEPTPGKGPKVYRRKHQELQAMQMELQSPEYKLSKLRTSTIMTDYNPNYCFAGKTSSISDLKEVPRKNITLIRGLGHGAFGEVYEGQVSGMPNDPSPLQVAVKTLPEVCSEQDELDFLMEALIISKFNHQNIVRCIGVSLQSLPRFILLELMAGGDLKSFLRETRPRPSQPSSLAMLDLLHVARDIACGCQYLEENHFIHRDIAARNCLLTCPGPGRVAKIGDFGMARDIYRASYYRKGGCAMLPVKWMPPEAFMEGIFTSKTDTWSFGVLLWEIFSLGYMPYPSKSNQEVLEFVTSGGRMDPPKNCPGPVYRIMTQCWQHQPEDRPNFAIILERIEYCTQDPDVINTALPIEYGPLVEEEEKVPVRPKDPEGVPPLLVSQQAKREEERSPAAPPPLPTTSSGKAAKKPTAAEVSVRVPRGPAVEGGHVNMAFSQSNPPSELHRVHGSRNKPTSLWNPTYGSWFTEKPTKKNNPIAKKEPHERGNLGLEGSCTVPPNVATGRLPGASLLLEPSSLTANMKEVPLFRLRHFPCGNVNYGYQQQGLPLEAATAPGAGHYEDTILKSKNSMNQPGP
T2 sequence (P00533 25-1210 L858R): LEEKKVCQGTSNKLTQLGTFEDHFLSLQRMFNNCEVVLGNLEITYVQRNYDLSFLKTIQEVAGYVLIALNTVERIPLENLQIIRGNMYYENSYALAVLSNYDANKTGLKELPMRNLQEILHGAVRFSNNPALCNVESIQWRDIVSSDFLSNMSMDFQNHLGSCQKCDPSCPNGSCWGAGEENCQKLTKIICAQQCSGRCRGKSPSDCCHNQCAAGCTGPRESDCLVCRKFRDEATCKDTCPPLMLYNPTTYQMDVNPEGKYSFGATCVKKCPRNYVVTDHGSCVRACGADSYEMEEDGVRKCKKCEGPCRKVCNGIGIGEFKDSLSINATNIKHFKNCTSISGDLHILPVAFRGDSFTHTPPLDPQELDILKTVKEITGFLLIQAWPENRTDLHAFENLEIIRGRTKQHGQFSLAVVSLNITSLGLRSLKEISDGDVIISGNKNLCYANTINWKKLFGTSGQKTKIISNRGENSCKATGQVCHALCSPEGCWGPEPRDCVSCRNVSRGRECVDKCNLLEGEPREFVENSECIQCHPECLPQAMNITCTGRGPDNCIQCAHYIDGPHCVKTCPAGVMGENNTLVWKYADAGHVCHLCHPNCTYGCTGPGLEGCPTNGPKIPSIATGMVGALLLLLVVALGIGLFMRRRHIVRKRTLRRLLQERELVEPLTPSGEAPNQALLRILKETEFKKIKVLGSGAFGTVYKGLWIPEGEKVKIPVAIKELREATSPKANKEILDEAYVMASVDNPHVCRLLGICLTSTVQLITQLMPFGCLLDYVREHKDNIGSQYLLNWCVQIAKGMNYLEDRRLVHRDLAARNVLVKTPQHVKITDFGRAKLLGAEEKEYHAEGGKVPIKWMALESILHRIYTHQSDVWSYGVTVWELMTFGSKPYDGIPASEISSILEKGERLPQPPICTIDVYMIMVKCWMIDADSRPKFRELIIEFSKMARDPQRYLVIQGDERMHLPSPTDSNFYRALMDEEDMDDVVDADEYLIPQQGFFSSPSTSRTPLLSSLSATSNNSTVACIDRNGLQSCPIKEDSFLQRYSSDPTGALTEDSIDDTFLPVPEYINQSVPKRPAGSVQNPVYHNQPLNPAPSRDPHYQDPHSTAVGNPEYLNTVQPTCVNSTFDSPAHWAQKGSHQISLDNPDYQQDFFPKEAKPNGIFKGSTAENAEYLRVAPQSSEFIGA

In data set [1], `COc1cc2ncnc(Nc3ccc(O)c(Br)c3)c2cc1OC` [Compound A, 4-[(3′-bromo-4′-hydroxyphenyl)amino]-6,7-dimethoxyquinazoline] showed an inhibition at 10 µM of 99%.
Same read-out and setting: as for `O=C(COc1ccc(OC(F)(F)F)cc1)NCc1nc(C(=O)NCCc2cccc(Cl)c2)cs1` [Compound B, N-[2-(3-chlorophenyl)ethyl]-2-[({[4-(trifluoromethoxy)phenoxy]acetyl}amino)methyl]-1,3-thiazole-4-carboxamide], the figure is 56%.
In the case of `CNS(=O)(=O)c1ccccc1Nc1ncnc(Nc2ccc(N3CCC(N4CCN(C)CC4)CC3)cc2OC)n1` [Example 7, 2-{[4-({2-methoxy-4-[4-(4-methylpiperazin-1-yl)piperidin-1-yl]phenyl}amino)-1,3,5-triazin-2-yl]amino}-N-methylbenzenesulfonamide], the values for the IC50 in data set [2], in data set [3] and in data set [4] were 50 nM, 87 nM and 214 nM, respectively.
Turning to `COc1cc(N2CCC3(CCCCN3C)CC2)ccc1Nc1ncnc(Nc2ccccc2S(=O)(=O)C(C)C)n1` [Example 12], the melting point is 132 to 135 °C. The compound also returned an IC50 in data set [2] of 61 nM. In addition, the IC50 in data set [3] was found to be 134 nM. Further, the IC50 in data set [4] was 509 nM.
In the case of `COc1cc(N2CCN(C)CC2)ccc1Nc1ncnc(Nc2ccccc2S(=O)(=O)C(C)C)n1` [Example 24], the results for the IC50 in data set [2], in data set [3] and in data set [4] were 29 nM, 125 nM and 1030 nM, respectively.
`COc1cc(N2CCN(C3CCN(C)CC3)CC2)ccc1Nc1nc(Nc2ccccc2S(=O)(=O)C(C)C)c2ccccc2n1` [Example 45] came in with a melting point of 109 to 114 °C. In data set [2], the IC50 was determined as 66 nM. The compound further gave an IC50 in data set [3] of 1040 nM. The compound also displayed an IC50 in data set [4] of 1900 nM.
For `COc1cc(N(C)C2CCN(C)CC2)ccc1Nc1ncnc(Nc2ccccc2S(=O)(=O)C(C)C)n1` [Example 52], the IC50 in data set [2] is 72 nM; in data set [3], 159 nM; in data set [4] it was 820 nM.
Taken in the same sequence, the figures for `COc1cc(N2CCC(N3CCCC3)CC2)ccc1Nc1ncnc(Nc2ccccc2S(=O)(=O)C(C)C)n1` [Example 58] were 25 nM, 156 nM and 648 nM.
Taken in the same sequence, the figures for `COc1cc(N2CCC(N3CCC(O)C3)CC2)ccc1Nc1ncnc(Nc2ccccc2S(=O)(=O)C(C)C)n1` (stereo not drawn) [Example 63] were 26 nM, 96 nM and 791 nM.
In the same order, the values of `COc1cc(N2CCNCC2)ccc1Nc1ncnc(Nc2ccccc2S(=O)(=O)C(C)C)n1` [Example 72] are 51 nM, 93 nM and 670 nM.
On to `COc1cc(N2CCC3(CCCN3C)CC2)ccc1Nc1ncnc(Nc2ccccc2S(=O)(=O)C(C)C)n1` [Example 120], for which the IC50 was determined as 74 nM in data set [2], 168 nM in data set [3] and 660 nM in data set [4].
In the case of `COc1cc(N2CCC(N3CCN(C)CC3)CC2)ccc1Nc1ncnc(Nc2ccccc2S(=O)(=O)N(C)C)n1` [Example 128], the melting point lay within 167 to 170 °C. Moreover, the IC50 in data set [2] came to 2.3 nM. The IC50 in data set [5] is 98 nM. It took 64 nM to reach half-maximal inhibition in data set [3] (IC50). The compound also came in with a half-maximal inhibitory concentration (IC50) in data set [4] of 175 nM. Half-maximal inhibition in data set [6] (IC50) was put at 1800 nM.
Take `COc1cc(N2CCC(N3CCN(C)CC3)CC2)ccc1Nc1ncnc(Nc2ccccc2S(=O)(=O)NC(C)C)n1` [Example 149]: the melting point lay within 185 to 189 °C. The compound further yielded an IC50 in data set [2] of 40 nM. In data set [3], this compound came in with an IC50 of 62 nM. In addition, the IC50 in data set [4] amounted to 512 nM.
`COc1cc(N2CCC(N3CCN(C)CC3)CC2)ccc1Nc1ncnc(Nc2ccccc2S(=O)(=O)N(C)C(C)C)n1` [Example 166] came in with a melting point of 162 to 164 °C. Further, the IC50 in data set [2] stood at 49 nM. Moreover, half-maximal inhibition in data set [3] (IC50) required 125 nM. The same compound displayed an IC50 in data set [4] of 419 nM.
On to `COc1cc(N2CCC(N3CCN(C)CC3)CC2)ccc1Nc1ncnc(Nc2ccccc2S(=O)(=O)NC2CC2)n1` [Example 171], for which the IC50 in data set [2] was 33 nM; in data set [3], 61 nM; in data set [4], 252 nM.
In the same order, the values of `COc1cc(N2CC(N3CCN(C)CC3)C2)ccc1Nc1ncnc(Nc2ccccc2S(=O)(=O)C(C)C)n1` [Example 176] are 150 nM, 119 nM and 496 nM.

Source of the values: patent publication US20130096100A1, “DI(ARYLAMINO)ARYL COMPOUND” (ASTELLAS PHARMA INC., priority 2007, published 2013).
